Data from patent publication US20030017462A1, “Control samples for use as standards for evaluating apoptosis in a selected tissue” (priority 2001, published 2003).
“Also recorded” adds a separate entry of the source.

Tested on: thymic tissue
Assay: Thymic apoptosis in microgravity culture (RCCS bioreactor), TUNEL assay
Assay type: cell-based, Lewis rats
Details: for Percent Area of Stain: 1 μM dexamethasone in culture media, microgravity bioreactor, 37° C.; for Ratio DEX/CON (Percent Area of Stain): 1 μM dexamethasone vs control media
Procedure: The following media and solutions were prepared:
1. Phosphate buffered saline (PBS) for rinsing tissue.
2. Control media, consisting of RPMi 1640 containing 15% heat-inactivated fetal bovine serum, 100 μg/mL penicillin, 100 μg/mL streptomycin, 100 μg/mL L-glutamine, and 2.5 μg/mL amphotericin B.
3. Experimental media, consisting of control media containing 1 μM dexamethasone.
Two microgravity bioreactors (Synthecon, Inc., Houston Tex.) were utilized; one containing control media and one containing experimental media.
The thymus was removed from two Lewis rats, washed in cold PBS to remove blood, and stripped of excess tissue. Thymus tissue was cut into sections of about 3 mm^3, while in cold media.
The bioreactors were filled with control (CON) or experimental (DEX) media. Approximately 24 thymus pieces were placed in each bioreactor, for incubation at 37° C. at a rotation speed appropriate for the size of tissue piece and sedimentation rate, in order to provide constant free-fall. Tissue pieces were removed from each bioreactor every half hour for the first 3 hours, then every hour to the sixth hour, then at hour 10 and hour 24.
Tissue was fixed in 10% neutral buffered formalin or Histochoice™ (Amresco, Inc., Solon Ohio), processed to paraffin and sectioned for histochemical analysis. Formalin-fixed sections were stained with hematoxylin and eosin. Immunohistochemical staining for Lewis Y expression was performed with Histochoice TM fixed samples on a DAKO autostainer, using a monoclonal mouse anti-human Lewis γ antibody (DAKO, Carpinteria Calif.). A peroxidase labeled streptavidin-biotin detection system (Zymed, So. San Francisco Calif.) and diaminobenzidine (DAB) chromagen were used.
In situ labeling of apoptosis was measured by terminal deoxynucleotidyl transferase mediated dUTP nick end labeling (TUNEL) method with a cell death detection kit (Boehringer Mannheim Gmbh, Mannheim, Germany). Using digital image analysis, immunostained sections were analyzed for intensity stain index (ISI=[ΣP0×I0]/total tissue area in pixels), where P0=number of pixels at each intensity and I0=the intensity units (Doolin et al., J. Surg. Res. 59: 191-197, 1995). TUNEL was quantified as total apoptotic cell number divided by total tissue area.

SMILES: C[C@@H]1C[C@H]2[C@@H]3CCC4=CC(=O)C=C[C@]4(C)[C@@]3(F)[C@@H](O)C[C@]2(C)[C@@]1(O)C(=O)CO [DEX, dexamethasone]
- Percent Area of Stain (time 0 hours): 6.04%
- Percent Area of Stain (time 3 hours): 21.68%
- Percent Area of Stain (time 6 hours): 33.29%
- Percent Area of Stain (time 10 hours): 43.82%
- Percent Area of Stain (time 24 hours): 43.30%
- Effect on rate of apoptosis of thymic tissue (1 μM dexamethasone in culture medium, RCCS bioreactor, compared with control culture): increases the rate of apoptosis; also recorded: increased the rate of apoptosis up to 10 hours post-initiation
- Ratio DEX/CON (Percent Area of Stain) (time 0 hours): 1.00
- Ratio DEX/CON (Percent Area of Stain) (time 3 hours): 1.46
- Ratio DEX/CON (Percent Area of Stain) (time 6 hours): 1.58
- Ratio DEX/CON (Percent Area of Stain) (time 10 hours): 1.37
- Ratio DEX/CON (Percent Area of Stain) (time 24 hours): 0.87
- Time to maximum level of apoptosis, as measured by TUNEL (thymic tissue in RCCS bioreactor in the presence of dexamethasone (24 hours without)): 10 h
